Laboratory results taken from patent publication US20130224223A1, “Compositions and Methods for Treating Neurological Disorders” (GEORGIA REGENTS UNIVERSITY, priority 2007, published 2013).

Molecular target: T1, ErbB4 (Rattus norvegicus, UniProt Q62956)
T1 construct: cerebral cortex was dissected out of Sprague-Dawley rat embryos (E18) and dissociated; endogenous in cells; host or cells: primary rat (Sprague-Dawley) embryonic cortical neurons, DIV14, GAD65-positive
Assay: phospho-ErbB4 immunostaining in GAD65-positive cortical neurons
Format: cell-based
Details: pretreatment 10 min before 5 nM NRG1; AG1478/AG879 5 mM [sic]
Experimental: FIG. 4A is a bar graph showing quantitative analysis of phospho-ErbB4 (p-ErbB4) in GAD65-positive cortical neurons treated with ecto-ErbB4 for 10 min prior to the addition of NRG1 (5 nM, final concentration) for another 10 min. n=7, *p<0.05. FIG. 4B is a line graph of eIPSC amplitude (nA) versus time (min) for cortical slices treated with sequential addition of NRG1 (5 nM) and ecto-ErbB4 (1 μg/ml and 2 μg/ml) (all final concentrations). On the top are averaged traces before (a) and after (b) NRG1, and after different dosages of ecto-ErbB4 ([c] and [d], 1 and 2 μg/ml, respectively). […]
FIG. 5A is a bar graph of phospho-ErbB4 (p-ErbB4) in cortical neurons treated with 5 mM AG1478, an inhibitor of ErbB4, or AG879, an inhibitor of ErbB2, for 10 min prior to the addition of NRG1 (5 nM, final concentration). Neurons were fixed and stained with phospho-ErbB4 and GAD65 antibodies, and visualized with Alexa 594 and FITC-coupled secondary antibodies respectively, and quantified. […]

T1 sequence (Q62956 26-1308): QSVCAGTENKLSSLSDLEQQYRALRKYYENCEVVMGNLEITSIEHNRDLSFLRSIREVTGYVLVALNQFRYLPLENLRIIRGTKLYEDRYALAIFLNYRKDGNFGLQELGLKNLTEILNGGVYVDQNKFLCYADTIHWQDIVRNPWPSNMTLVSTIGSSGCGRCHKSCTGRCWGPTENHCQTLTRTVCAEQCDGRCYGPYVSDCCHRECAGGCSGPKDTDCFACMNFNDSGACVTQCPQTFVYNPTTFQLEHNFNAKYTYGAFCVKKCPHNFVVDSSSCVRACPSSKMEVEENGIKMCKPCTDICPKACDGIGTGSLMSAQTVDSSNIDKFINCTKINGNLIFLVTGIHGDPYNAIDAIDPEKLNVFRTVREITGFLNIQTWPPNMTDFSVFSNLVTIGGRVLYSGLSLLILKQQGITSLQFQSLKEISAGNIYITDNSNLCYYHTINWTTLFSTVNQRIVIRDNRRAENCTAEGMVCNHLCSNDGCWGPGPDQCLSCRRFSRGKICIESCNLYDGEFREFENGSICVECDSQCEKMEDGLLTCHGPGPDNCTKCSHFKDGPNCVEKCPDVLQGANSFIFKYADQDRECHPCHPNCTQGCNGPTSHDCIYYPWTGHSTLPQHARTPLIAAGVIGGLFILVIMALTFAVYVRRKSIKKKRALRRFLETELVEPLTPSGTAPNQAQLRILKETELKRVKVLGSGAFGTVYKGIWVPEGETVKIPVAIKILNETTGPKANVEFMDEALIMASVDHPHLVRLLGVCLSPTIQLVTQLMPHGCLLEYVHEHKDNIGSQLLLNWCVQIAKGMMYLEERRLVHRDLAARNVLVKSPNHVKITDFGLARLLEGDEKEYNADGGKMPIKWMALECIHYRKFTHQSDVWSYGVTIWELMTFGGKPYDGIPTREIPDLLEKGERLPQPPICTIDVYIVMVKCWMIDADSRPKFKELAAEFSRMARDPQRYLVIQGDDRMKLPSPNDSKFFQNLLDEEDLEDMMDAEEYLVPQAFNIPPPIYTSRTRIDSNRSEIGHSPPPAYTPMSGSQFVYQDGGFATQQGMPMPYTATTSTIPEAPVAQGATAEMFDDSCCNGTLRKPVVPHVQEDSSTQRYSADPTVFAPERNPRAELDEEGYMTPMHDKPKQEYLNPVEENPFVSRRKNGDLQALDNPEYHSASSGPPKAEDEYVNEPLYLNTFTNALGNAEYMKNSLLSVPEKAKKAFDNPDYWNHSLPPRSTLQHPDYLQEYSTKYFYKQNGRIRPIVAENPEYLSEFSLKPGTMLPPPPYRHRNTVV

NRG1 activation (tyrosine phosphorylation) of ErbB4: blocked
Structure (SMILES): COc1cc2ncnc(Nc3cccc(Cl)c3)c2cc1OC [AG1478]
